Among the test systems are A549; ACHN; COLO 205; HCT-116; HL-60; HOP-62; HOP-92; Hs-578T; NCI-H226; NCI-H460; NCI-H522; OVCAR-4; OVCAR-8; RPMI-8226; SNB-75; SR; T47D; UO-31; SF-539.
Assay in all cases: DTP human tumour cell line panel, 48 h

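Protocol summary: plate cells (96-well), add compound at 5 concentrations, incubate 48 h, interpolate endpoints linearly. Abbreviation: GI50, concentration required for 50% inhibition of growth.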 Active and inactive are the calls of the source. No stated cut-off is given here; in the data, active = GI50 up to about 1.1 µM and inactive = higher. Where only a bound is given, the exact number is not on record here.

Usually GI50 stands for the concentration giving 50% growth inhibition. Regarding `COc1cccc(C2c3cc4c(cc3OC(C)(N3CCCC3)C2C)OCO4)c1OC` (stereo not drawn), the GI50 in the experiment on A549 is 5.58 µM (inactive); with ACHN, 3.83 µM (inactive); with COLO 205, 7.67 µM (inactive); with HCT-116, 4.3 µM (inactive); in the experiment on HL-60 it was 4.91 µM (inactive); in the experiment on HOP-62 it was 14.3 µM (inactive). Moreover, the GI50 was 14.3 µM (inactive) in the experiment with HOP-92; 10.7 µM (inactive) in the experiment with Hs-578T; 14.4 µM (inactive) in the experiment on NCI-H226; 11.7 µM (inactive) with NCI-H460; 13.9 µM (inactive) with NCI-H522; 5.18 µM (inactive) with OVCAR-4. Besides, the GI50 in the experiment with OVCAR-8 was 10.8 µM (inactive); in the experiment with RPMI-8226 it was 8.97 µM (inactive); in the experiment on SNB-75, 8.89 µM (inactive); in the experiment with SR it was 4.31 µM (inactive); with T47D, 4.24 µM (inactive); in the experiment on UO-31, 6.41 µM (inactive).
On to `CCOC(=O)[C@@H]1ON2OC(OC3CCCC3(c3ccccc3)c3ccccc3)C(OC(C)=O)[C@H]3OC(=O)[C@@H]1C32` (stereo partly drawn), for which the GI50 in the experiment on A549 is 47.2 µM (inactive); in the experiment on ACHN, 29.9 µM (inactive); with COLO 205, > 100 µM (inactive); in the experiment with HCT-116 it was 29.6 µM (inactive); in the experiment with HL-60, 31.3 µM (inactive); with HOP-62 it was > 100 µM (inactive). Moreover, the GI50 with HOP-92 is > 100 µM (inactive); in the experiment on Hs-578T, > 100 µM (inactive); in the experiment with NCI-H226 it was > 100 µM (inactive); in the experiment on NCI-H460, > 100 µM (inactive); in the experiment with NCI-H522 it was 21.2 µM (inactive); in the experiment on OVCAR-8 it was > 100 µM (inactive). Besides, the GI50 in the experiment on RPMI-8226 is > 100 µM (inactive); in the experiment on SF-539, 56.6 µM (inactive); in the experiment with SNB-75, > 100 µM (inactive); in the experiment with SR, > 100 µM (inactive); in the experiment on T47D, 46.6 µM (inactive); with UO-31 it was 36.4 µM (inactive).
For `c1ccc2c(c1)c1c3c(c4c(n32)=NCCN4)CCC1`, the GI50 was 48.5 µM (inactive) with A549; 40.9 µM (inactive) with ACHN; 28.1 µM (inactive) with COLO 205; 30.5 µM (inactive) in the experiment on HCT-116; 44.4 µM (inactive) in the experiment on HL-60; 36.1 µM (inactive) in the experiment with HOP-62. Besides, the GI50 is 25.6 µM (inactive) in the experiment on HOP-92; 26.5 µM (inactive) with Hs-578T; 19.2 µM (inactive) in the experiment on NCI-H226; 34.7 µM (inactive) in the experiment with NCI-H460; 20.7 µM (inactive) with NCI-H522; 42.5 µM (inactive) with OVCAR-4. Further, the GI50 in the experiment with OVCAR-8 was 39.6 µM (inactive); with RPMI-8226, 24.3 µM (inactive); with SF-539, 46.1 µM (inactive); in the experiment with SNB-75 it was 21.7 µM (inactive); in the experiment with SR, 17.4 µM (inactive); in the experiment with T47D, 20.7 µM (inactive). Besides, the GI50 with UO-31 is 45.2 µM (inactive).
Turning to `CN(C)c1ccc(/C=C/c2ccnc3ccccc23)cc1N`, the GI50 with A549 is 6.81 µM (inactive); with ACHN, 10.3 µM (inactive); in the experiment with COLO 205, 2.53 µM (inactive); with HL-60 it was 3.52 µM (inactive); in the experiment on HOP-62, 13.8 µM (inactive); with HOP-92 it was 0.337 µM (active). For the same compound, the GI50 in the experiment with Hs-578T was 15.3 µM (inactive); in the experiment on NCI-H226 it was 11.4 µM (inactive); in the experiment with NCI-H460, 8.24 µM (inactive); with OVCAR-4, 10.5 µM (inactive); with OVCAR-8 it was 8.85 µM (inactive); with RPMI-8226 it was 2.52 µM (inactive). For the same compound, the GI50 in the experiment on SF-539 is 14.7 µM (inactive); in the experiment with SNB-75 it was 6.5 µM (inactive); in the experiment with SR it was 2.21 µM (inactive); in the experiment on T47D, 0.547 µM (active); in the experiment with UO-31, 7.55 µM (inactive).
For `COC1=C(C)C(=O)c2c(c(COC(N)=O)c3n2CC2C3N2C)C1=O` (stereo not drawn), the 50% growth inhibitory concentration (GI50) with A549 was < 0.01 µM (active); in the experiment with ACHN it was < 0.01 µM (active); in the experiment on COLO 205, < 0.0157 µM (active); in the experiment on HCT-116 it was < 0.0125 µM (active); with HL-60, 0.0296 µM (active); with HOP-62, < 0.01 µM (active). In addition, the concentration for 50% growth inhibition (GI50) was 0.148 µM (active) with HOP-92; 0.16 µM (active) in the experiment with Hs-578T; 0.0766 µM (active) in the experiment on NCI-H226; < 0.01 µM (active) in the experiment on NCI-H460; < 0.0124 µM (active) with NCI-H522; 0.0826 µM (active) in the experiment on OVCAR-4. The GI50 with OVCAR-8 is < 0.0191 µM (active); in the experiment with RPMI-8226 it was < 0.0154 µM (active); with SF-539 it was 0.0112 µM (active); in the experiment on SNB-75 it was < 0.0179 µM (active); with SR, < 0.01 µM (active); in the experiment on T47D it was 0.0301 µM (active). In addition, the 50% growth inhibitory concentration (GI50) in the experiment on UO-31 was < 0.0145 µM (active).
For `c1ccc2c(c1)NC1(N3CCCCC3)CCCCC21` (stereo not drawn), the GI50 with A549 is 30.5 µM (inactive); in the experiment on ACHN it was 47.1 µM (inactive); in the experiment with COLO 205 it was 62.1 µM (inactive); in the experiment with HCT-116, 37.9 µM (inactive); in the experiment on HL-60 it was 29.6 µM (inactive); with HOP-62 it was > 100 µM (inactive). In addition, the GI50 in the experiment on HOP-92 was 20 µM (inactive); with Hs-578T it was 47.9 µM (inactive); in the experiment with NCI-H226, 52.4 µM (inactive); with NCI-H460, 50.6 µM (inactive); in the experiment with NCI-H522, 35.8 µM (inactive); with OVCAR-4, 56.4 µM (inactive). In addition, the GI50 in the experiment on OVCAR-8 is 63.2 µM (inactive); in the experiment on RPMI-8226 it was 39.1 µM (inactive); in the experiment with SF-539 it was > 100 µM (inactive); in the experiment on SNB-75, 22.5 µM (inactive); in the experiment on SR, 32 µM (inactive); in the experiment with T47D it was 20.9 µM (inactive). Besides, the GI50 in the experiment on UO-31 was 51.9 µM (inactive).
In the case of `Cc1c(Cl)nc(Nc2nc3ccccc3[nH]2)nc1Cl`, the GI50 in the experiment with A549 is > 100 µM (inactive); in the experiment with ACHN, > 100 µM (inactive); in the experiment on COLO 205 it was 72.3 µM (inactive); in the experiment on HCT-116 it was > 100 µM (inactive); in the experiment with HL-60, > 100 µM (inactive); in the experiment on HOP-92 it was 2.06 µM (inactive). Besides, the GI50 is 27.2 µM (inactive) in the experiment on Hs-578T; > 100 µM (inactive) with NCI-H226; > 100 µM (inactive) in the experiment on NCI-H460; 89.5 µM (inactive) with NCI-H522; 29 µM (inactive) with OVCAR-4; 41.7 µM (inactive) in the experiment with OVCAR-8. The GI50 is > 100 µM (inactive) with RPMI-8226; > 100 µM (inactive) in the experiment on SF-539; > 100 µM (inactive) in the experiment with SNB-75; 19.9 µM (inactive) in the experiment on SR; 43.7 µM (inactive) in the experiment with T47D; > 100 µM (inactive) in the experiment with UO-31.
Take `CCCc1[nH]nc(C(N)=O)c1/N=N/N(C)C`: the GI50 in the experiment with A549 is 42.4 µM (inactive); in the experiment with ACHN, 44.2 µM (inactive); in the experiment on COLO 205 it was 63.2 µM (inactive); in the experiment on HCT-116, 51.9 µM (inactive); with HL-60, 8.34 µM (inactive); in the experiment with HOP-62, 58.7 µM (inactive). Further, the GI50 in the experiment with HOP-92 is 33.3 µM (inactive); with Hs-578T, 50 µM (inactive); in the experiment with NCI-H226 it was 38.9 µM (inactive); in the experiment with NCI-H522, 17.8 µM (inactive); with OVCAR-4 it was 54.1 µM (inactive); in the experiment on OVCAR-8, 76.2 µM (inactive). Besides, the GI50 in the experiment with RPMI-8226 was 39.4 µM (inactive); with SF-539, 48.4 µM (inactive); in the experiment with SNB-75, 16.1 µM (inactive); in the experiment with SR, 10.5 µM (inactive); with T47D, 54 µM (inactive); in the experiment on UO-31, 1.16 µM (inactive).
Regarding `CC(=O)O[C@H]1C[C@]2(C)C(CCC3O[C@@]32C)[C@@]2(CC(c3ccoc3)OC2O)[C@@H]1C` (stereo partly drawn), the GI50 in the experiment on A549 is > 100 µM (inactive); in the experiment with ACHN, > 100 µM (inactive); in the experiment with COLO 205 it was > 100 µM (inactive); with HCT-116 it was 60.8 µM (inactive); in the experiment on HL-60 it was 21.6 µM (inactive); in the experiment with HOP-92, > 100 µM (inactive). For the same compound, the GI50 in the experiment with Hs-578T is > 100 µM (inactive); in the experiment on NCI-H226, > 100 µM (inactive); with NCI-H460 it was 60.8 µM (inactive); in the experiment on NCI-H522, 44.3 µM (inactive); in the experiment on OVCAR-4, 41 µM (inactive); in the experiment on OVCAR-8, > 100 µM (inactive). Moreover, the GI50 was 28.9 µM (inactive) with RPMI-8226; > 100 µM (inactive) with SF-539; > 100 µM (inactive) in the experiment with SNB-75; 39.2 µM (inactive) in the experiment with SR; 39.3 µM (inactive) with T47D; 59.3 µM (inactive) in the experiment on UO-31.
On to `N#CC1(C#N)N[C@@H](c2ccsc2)[C@H]2C(=O)N(c3ccccc3)C(=O)[C@H]21`, for which the GI50 with A549 was > 100 µM (inactive); in the experiment with ACHN, > 100 µM (inactive); in the experiment with COLO 205, 93.8 µM (inactive); with HCT-116, 79.1 µM (inactive); in the experiment on HL-60 it was 21.4 µM (inactive); with HOP-62, > 100 µM (inactive). For the same compound, the GI50 is 65.2 µM (inactive) in the experiment with HOP-92; 83.6 µM (inactive) in the experiment on Hs-578T; > 100 µM (inactive) in the experiment with NCI-H226; > 100 µM (inactive) in the experiment with NCI-H522; > 100 µM (inactive) in the experiment on OVCAR-8; 18.7 µM (inactive) in the experiment on RPMI-8226. The GI50 in the experiment with SNB-75 was > 100 µM (inactive); in the experiment on SR, 21.3 µM (inactive); with T47D, 63.2 µM (inactive); with UO-31 it was > 100 µM (inactive).
Regarding `c1cc2cc(Cc3ccc4[nH]ccc4c3)ccc2[nH]1`, the GI50 in the experiment with A549 is 16.2 µM (inactive); with ACHN, 25.2 µM (inactive); with COLO 205, 17.5 µM (inactive); in the experiment on HCT-116, 17.6 µM (inactive); in the experiment on HL-60, 10.7 µM (inactive); with HOP-62, 15.7 µM (inactive). The GI50 with HOP-92 is 15.2 µM (inactive); in the experiment with Hs-578T, 19.9 µM (inactive); with NCI-H226, 15.9 µM (inactive); with NCI-H460, 15.8 µM (inactive); in the experiment on NCI-H522, 15.6 µM (inactive); in the experiment with OVCAR-4, 7.74 µM (inactive). Besides, the GI50 in the experiment on RPMI-8226 is > 10 µM (inactive); in the experiment with SF-539 it was 16.5 µM (inactive); in the experiment with SNB-75, 17.9 µM (inactive); in the experiment on SR, 5.78 µM (inactive); in the experiment with T47D it was 15.6 µM (inactive); in the experiment with UO-31, 16.2 µM (inactive).

(Values after ChEMBL document CHEMBL1201862, “PubChem BioAssay data set” (2004).)
